From patent US20240317826A1, “COMPOSITIONS AND METHODS FOR TREATING AND/OR I[…] AGENT FOR TREATING HIV-1 INFECTIONS” (priority 2021, published 2024)
Entries after “also recorded” stand apart in the source; their conditions may differ.

Experiments:
Assay type in all cases: cell-based
[1] = test system: HIV-1 particle production; experiment: Particle production (p24) in 293T cells transfected with pNL4-3 in the presence of stapled peptides; conditions: p24 in virions and cell lysates
Description: FIG. 10A-FIG. 10B show the mechanism of HIV-1 inhibition by Stapled peptides. […] (1) Transfection of pNL4-3 plasmid in to 293T cells in the presence of stapled peptides and determine the particle production by analyzing p24 in the supernatant and cell lysates. (2) Virions produced are analyzed for their infectivity in the absence of stapled peptides. (3) Virions are subjected to Transmission Electron Microscopy (TEM) to determine the particle morphogenesis. (4) Purified and concentrated virions are subjected to Western blot analysis for the presence of INI1.
We hypothesized that INI1-derived Stapled peptides and drugs target IN and disrupt IN/RNA and IN/INI1 interactions. […] To test this hypothesis and to determine the mechanism of inhibition by stapled peptides, we tested the effect of stapled peptides on late events (production of HIV-1 particles and particle morphogenesis) and further tested the infectivity of particles that are produced (FIG. 10a).

HIV-1 virions = experiment: Infectivity in CEM-GFP cells of virions produced in the presence of stapled peptides; conditions: virions from 293T cells, 5 ng p24, infection of CEM-GFP cells in the absence of stapled peptides; GFP and p24
Description: FIG. 11A and FIG. 11B show infectivity of virions in CEM GFP cells produced in 293T cells that were treated with various stapled peptide (at 5 μM concentration) or DMSO. Equal amounts of virions treated with stapled peptides were used to infect CEM-GFP cells and the infected cells were imaged on days 1, 3, 6, 9 and 12 (FIG. 11A) and subjected to p24 ALphaLisa (FIG. 11B). FIG. 11C and FIG. 11D show Infectivity of the virions produced in the presence of increasing concentrations of stapled peptide during production in 293T cells. The 293T cells transfected with pNL4-3 were treated with increasing concentrations of stapled peptides and equal amount of virions from these cells were used to infect CEM-GFP cells. The infected cells were imaged on day 6 (FIG. 11C) and subjected to p24 ALphaLisa (FIG. 11D).
To determine the infectivity of virions produced in the presence of DMSO (DMSO-V), SP-38 (SP38-V), SP-80 (SP80-V) and SP83-D225G (SP83-V), we used equal amounts (5 ng p24) of virions to infect CEM-GFP cells in the absence of stapled peptides (FIGS. 11a and c). […] Replication of the virus was monitored by GFP expression in […] and also by assaying for the production of p24 in the culture supernatants (FIGS. 11a-d).

[2] = test system: HIV-1 virion morphogenesis; experiment: TEM analysis of morphology of virions produced in the presence of stapled peptides; conditions: ~200 virions each
Text: (§1) FIG. 12A-FIG. 12C show effects of stapled peptides on virion morphogenesis and incorporation of INI1. […] The middle panel is the expanded version and the lower panel represents the carton of the two viral particles from the middle panel. Note the empty capsid shell and eccentric electron dense material, typical of morphologically defective virions. […] About 200 virions each were scored to quantify four different types of morphological forms—Conical (Co), Eccentric (Ec), Immature (Im) and Unclear (Uc).
To determine if the virions produced in the presence of stapled peptides have similar defect in virion morphogenesis, we carried out TEM analysis of the virions (˜200 each).

[3] = test system: INI1 incorporation into HIV-1 virions; experiment: Immunoblot of virions for incorporation of INI1; conditions: Western analysis of concentrated virions
Text: as §1
We tested the incorporation of INI1 into the virions. Electron microscopy analysis of ˜200 particles and Western analysis of concentrated virions were carried out to determine the presence or absence of INI1 (FIG. 12b).

[4] = test system: reactivated HIV-1 from latent cells (J1.1); experiment: Co-culture of PMA-reactivated latent J1.1 cells with CEM-GFP cells; set-up: inhibition of infection of CEM-GFP cells by reactivated virus (green cells): dose or concentration left out as unconfirmed; conditions: J1.1 + CEM-GFP co-culture; for inhibition of infection of CEM-GFP cells by reactivated virus (green cells): PMA, images day 2 postinduction; for inhibition of virus spread, p24 levels in culture: p24 on day 5
Text: FIG. 13A-FIG. 13C show staple peptides inhibit infection of reactivated HIV-1 from latent cells. […] Cells harboring latent virus (J1.1) were co-cultured with CEM-GFP cells in the presence and absence of stapled peptides. Addition of PMA reactivates HIV-1 from latent cells which infect CEM cells to induce expression of GFP. […] Images were taken on day 2 postinduction. […] Experiments was done in triplicates and the graph represents mean+/−SEM.
As a proof-of-concept to test if the stapled peptides inhibit spreading of the reactivated latent viruses, we used an in vitro cell line model of latency, J1.1 cells. J1.1 have a single latently integrated provirus which is activated using LRAs. We activated the latently integrated provirus by the addition of PMA and then mixed them with CEM-GFP cells in the cultures. Infection of CEM-GFP cells with virus produced from J1.1 upon reactivation turns the CEM-GFP T-cells green (FIGS. 13a and b right side panels). We tested the effect of addition of stapled peptides in this co-culture experiment (FIGS. 13a and b middle and left side panels). […] We furthermore determined the p24 released from the culture supernatant as a measure of the virus production in the presence and absence of stapled peptides (FIG. 13c).

Substance	effect on particle production [1]	infectivity of virions produced in the presence of peptide (HIV-1 virions)	virion particle morphology [2]	incorporation of INI1 into virions [3]	inhibition of infection of CEM-GFP cells by reactivated virus (green cells) [4]	inhibition of virus spread, p24 levels in culture [4]
lys-Leu-Met-Thr-Pro-Glu-Met-Phe-S5-Glu-Ile-Leu-S5-Cys-Asp-Leu-Asn [SP38]	did not affect	defective for infection; also recorded: produced non-infection virions	large number of morphologically defective “eccentric” particles and very few conical capsids; also recorded: increased proportion of eccentric virions	not incorporated; also recorded: lack of INI1 incorporation into virions	inhibited the infection	inhibited the virus spread; also recorded: inhibits p24 levels in induced and uninduced conditions
lys-Leu-Met-Thr-Pro-Glu-Met-Phe-S5-Glu-Ile-Leu-S5-Cys-Gly-Leu-Asn [SP83]	–	–	–	incorporated	not	not
